Laboratory results reported in the supplement of paper PMC8149375.

Key:
Settings in all cases: treatment: drug + dasatinib (fixed dose, not stated); 5 days
[1] = system: CAKI-1; test: AUC of dose-response viability curve, drug + dasatinib, normalised to DMSO (arbitrary (AUC of normalised viability)); higher = less growth inhibition
Protocol: (§1)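 Primary HTS combination arm: 8 RCC cell lines treated with 8 doses (up to 10 uM) of each library drug plus a fixed dose of dasatinib (dose not stated) for 5 days; viability read by CellTiter-Glo and normalised to DMSO. GI50 was fitted with XLfit, AUC is the area under the dose-response curve, and minimum viability is the lowest fraction of DMSO viability across doses.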

[2] = system: ACHN; test: as above
Protocol: as §1

[3] = system: UO-31; test: as above
Protocol: as §1

[4] = system: TK-10; test: as above
Protocol: as §1

[5] = system: 786-O; test: as above
Protocol: as §1

[6] = system: A498; test: as above
Protocol: as §1

[7] = system: 769-P; test: as above
Protocol: as §1

[8] = system: SN12C; test: as above
Protocol: as §1

[9] = system: CAKI-1; test: GI50 of drug in presence of dasatinib; higher = less potent
Protocol: as §1

[10] = system: ACHN; test: as above
Protocol: as §1

[11] = system: UO-31; test: as above
Protocol: as §1

[12] = system: TK-10; test: as above
Protocol: as §1

[13] = system: A498; test: as above
Protocol: as §1

[14] = system: 769-P; test: as above
Protocol: as §1

[15] = system: SN12C; test: as above
Protocol: as §1

[16] = system: CAKI-1; test: minimum viability across doses, drug + dasatinib, relative to DMSO (fraction); higher = less growth inhibition
Protocol: as §1

[17] = system: ACHN; test: as above
Protocol: as §1

[18] = system: UO-31; test: as above
Protocol: as §1

[19] = system: TK-10; test: as above
Protocol: as §1

[20] = system: 786-O; test: as above
Protocol: as §1

[21] = system: A498; test: as above
Protocol: as §1

[22] = system: 769-P; test: as above
Protocol: as §1

[23] = system: SN12C; test: as above
Protocol: as §1

[24] = system: 786-O; test: GI50 of drug in presence of dasatinib; higher = less potent
Protocol: as §1

Row | SMILES | AUC of dose-response viability curve [1] | AUC of dose-response viability curve [2] | AUC of dose-response viability curve [3] | AUC of dose-response viability curve [4] | AUC of dose-response viability curve [5] | AUC of dose-response viability curve [6] | AUC of dose-response viability curve [7] | AUC of dose-response viability curve [8] | GI50 of drug [9] [nM] | GI50 of drug [10] [nM] | GI50 of drug [11] [nM] | GI50 of drug [12] [nM] | GI50 of drug [13] [nM] | GI50 of drug [14] [nM] | GI50 of drug [15] [nM] | minimum viability across doses [16] | minimum viability across doses [17] | minimum viability across doses [18] | minimum viability across doses [19] | minimum viability across doses [20] | minimum viability across doses [21] | minimum viability across doses [22] | minimum viability across doses [23] | GI50 of drug [24] [nM]
1 | CNC(=O)CN1CCC(Oc2cc3c(Nc4cccc(Cl)c4F)ncnc3cc2OC)CC1 [AZD8931] + Cc1nc(Nc2ncc(C(=O)Nc3c(C)cccc3Cl)s2)cc(N2CCN(CCO)CC2)n1 [dasatinib] | 2.11 | 1.24 | 2.96 | 1.99 | 1.88 | 2.24 | 1.69 | 2.3 | 2990 | 11.4 | 4660 | 477 | 1040 | 135 | > 10000 | 0.332 | 0.233 | 0.344 | 0.277 | 0.262 | 0.284 | 0.15 | 0.569 | –
2 | Cc1ccc(NC(=O)c2cccc(N(C)C)c2)cc1NC(=O)c1ccc(O)cc1 + Cc1nc(Nc2ncc(C(=O)Nc3c(C)cccc3Cl)s2)cc(N2CCN(CCO)CC2)n1 [dasatinib] | 2.43 | 2.1 | 4.5 | 2.37 | 2 | 3.67 | 2.41 | 2.52 | > 10000 | > 10000 | > 10000 | > 10000 | > 10000 | > 10000 | > 10000 | 0.65 | 0.54 | 1.02 | 0.609 | 0.388 | 0.932 | 0.639 | 0.69 | –
3 | O=C(NC[C@H](O)CO)c1ccncc1Nc1ccc(I)cc1F + Cc1nc(Nc2ncc(C(=O)Nc3c(C)cccc3Cl)s2)cc(N2CCN(CCO)CC2)n1 [dasatinib] | 1.52 | 1.28 | 2.33 | 1.9 | 1.87 | 2.28 | 1.81 | 1.9 | 139 | 10.5 | 563 | 296 | – | 455 | 307 | 0.0863 | 0.216 | 0.0714 | 0.203 | 0.394 | 0.31 | 0.212 | 0.227 | 89.8
4 | Cl.Cl.NC1(c2ccc(-c3nc4ccn5c(=O)[nH]nc5c4cc3-c3ccccc3)cc2)CCC1 [MK-2206 dihydrochloride] + Cc1nc(Nc2ncc(C(=O)Nc3c(C)cccc3Cl)s2)cc(N2CCN(CCO)CC2)n1 [dasatinib] | 1.69 | 1.45 | 2.61 | 2.1 | 2.02 | 2.94 | 2.05 | 2.18 | 111 | 24.1 | 1740 | 1110 | > 10000 | – | > 10000 | 0.102 | 0.202 | 0.0262 | 0.263 | 0.224 | 0.755 | 0.234 | 0.551 | 2410
